What was measured:
panel of 442 kinases [1] = molecular target: T1, panel of 442 kinases (Homo sapiens, UniProt Q9UPZ9); type: binding; conditions: Compound Concentration 10 µM
T1 construct: purchased KINOMEscan
T1 sequence (Q9UPZ9 1-632): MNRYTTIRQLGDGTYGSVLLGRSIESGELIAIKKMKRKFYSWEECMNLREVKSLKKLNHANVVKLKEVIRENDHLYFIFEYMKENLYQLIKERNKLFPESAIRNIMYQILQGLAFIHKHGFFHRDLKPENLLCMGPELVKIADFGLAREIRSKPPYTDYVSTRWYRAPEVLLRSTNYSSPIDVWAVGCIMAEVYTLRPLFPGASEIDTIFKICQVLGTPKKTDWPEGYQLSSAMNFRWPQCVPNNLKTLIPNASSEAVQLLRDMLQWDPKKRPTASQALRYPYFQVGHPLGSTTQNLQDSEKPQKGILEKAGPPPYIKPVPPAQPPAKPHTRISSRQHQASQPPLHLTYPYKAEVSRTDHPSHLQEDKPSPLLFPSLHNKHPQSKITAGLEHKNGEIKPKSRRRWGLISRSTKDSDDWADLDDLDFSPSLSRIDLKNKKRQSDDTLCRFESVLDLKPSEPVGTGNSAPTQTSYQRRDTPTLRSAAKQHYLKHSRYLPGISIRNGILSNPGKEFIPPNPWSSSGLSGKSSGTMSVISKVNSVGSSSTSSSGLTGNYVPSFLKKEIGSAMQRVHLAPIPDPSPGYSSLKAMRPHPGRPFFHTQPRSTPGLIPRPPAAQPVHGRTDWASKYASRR
Excerpt: (§1) We assessed the selectivity of members of this scaffold using the KINOMEscan methodology across a near comprehensive panel of 442 kinases [[18,27]].

panel of 442 kinases [2] = molecular target: T2, panel of 442 kinases (Homo sapiens, UniProt Q9UF33); type: binding; conditions: Compound Concentration 10 µM
T2 sequence (Q9UF33 23-1036): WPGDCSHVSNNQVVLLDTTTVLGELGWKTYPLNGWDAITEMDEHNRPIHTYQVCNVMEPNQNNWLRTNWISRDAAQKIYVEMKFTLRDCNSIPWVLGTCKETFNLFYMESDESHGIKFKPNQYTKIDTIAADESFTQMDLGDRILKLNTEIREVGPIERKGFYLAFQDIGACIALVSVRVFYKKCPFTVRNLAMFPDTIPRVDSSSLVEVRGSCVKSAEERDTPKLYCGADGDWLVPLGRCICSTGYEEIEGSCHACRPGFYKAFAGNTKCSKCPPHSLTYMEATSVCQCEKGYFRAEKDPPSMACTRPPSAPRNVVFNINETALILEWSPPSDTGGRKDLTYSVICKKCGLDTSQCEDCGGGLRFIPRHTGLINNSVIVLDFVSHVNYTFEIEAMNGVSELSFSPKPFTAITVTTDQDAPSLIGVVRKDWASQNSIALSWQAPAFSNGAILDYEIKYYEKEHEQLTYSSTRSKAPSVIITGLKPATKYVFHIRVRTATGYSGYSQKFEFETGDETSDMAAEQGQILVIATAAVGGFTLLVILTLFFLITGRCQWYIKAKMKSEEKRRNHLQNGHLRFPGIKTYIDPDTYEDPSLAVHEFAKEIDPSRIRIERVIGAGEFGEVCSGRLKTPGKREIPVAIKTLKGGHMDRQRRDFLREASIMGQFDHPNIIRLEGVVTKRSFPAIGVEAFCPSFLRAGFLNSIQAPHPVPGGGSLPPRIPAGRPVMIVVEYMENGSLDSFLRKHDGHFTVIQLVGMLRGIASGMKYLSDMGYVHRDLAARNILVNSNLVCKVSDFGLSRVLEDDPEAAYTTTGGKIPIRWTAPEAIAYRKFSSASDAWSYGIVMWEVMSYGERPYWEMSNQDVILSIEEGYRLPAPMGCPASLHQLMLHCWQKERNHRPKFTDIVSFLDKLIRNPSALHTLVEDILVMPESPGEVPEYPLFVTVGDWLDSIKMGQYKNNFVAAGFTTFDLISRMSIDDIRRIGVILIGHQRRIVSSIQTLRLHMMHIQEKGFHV
Excerpt: as §1

Row | Structure (SMILES) | KINOMEscan: ICK (panel of 442 kinases [1]) | KINOMEscan: EPHA6 (panel of 442 kinases [2])
1 | COc1cc(C(=O)N2CCC(N3CCN(C)CC3)CC2)ccc1Nc1ncc2c(n1)N(C)c1ccccc1C(=O)N2C [15 (LRRK2-IN-1)] | 90 | 89
2 | CCOc1cc(C(=O)N2CCC(N3CCN(C)CC3)CC2)ccc1Nc1ncc2c(n1)N(C1CCCC1)c1ccccc1C(=O)N2C [Compound 26] | 100 | 100
3 | COc1cc(C(=O)N2CCC(N3CCN(C)CC3)CC2)ccc1Nc1ncc2c(n1)N1CCc3cccc(c31)C(=O)N2C [Compound 24] | – | 97
4 | COc1cc(C(=O)N2CCC(N3CCN(C)CC3)CC2)ccc1Nc1ncc2c(n1)N(C1CCCC1)c1ccccc1C(=O)N2C [Compound 25, 11-cyclopentyl-2-((2-methoxy-4-(4-(4-methylpiperazin-1-yl)piperidine-1-carbonyl)phenyl)amino)-5-methyl-5H-benzo[e]pyrimido[5,4-b][1,4]diazepin-6(11H)-one] | 100 | 100

From PMC3914206
